The test system of one series is A549 lung cancer cells. The series can be described thus: MTT assay (cell viability; CI and SI derived from it). The format is cell-based, human. Particulars: A549, max tested 100 μM, combinations: Ru-PIP gradient with fixed Olaparib. As for the experimental part: (§1) Cells were seeded in 96-well plates at 5 × 10^3 cells/well and allowed to adhere overnight. […] For drug combination treatment, cells were treated with concentration gradient of Ru-PIP (3.125–100 µM) in combination with Olaparib (5 or 10 µM). After 24, 48 or 72 h incubation, 0.5 mg/ml thiazolyl blue tetrazolium bromide (MTT) dissolved in 1X PBS was added to each well and cells were incubated at 37 °C for 4 h. 100 µl of DMSO was added to each well to solubilize the reduced purple formazan crystals formed. Next, the absorbance at 570 nm (630 nm as reference wavelength) was measured using a microplate reader. The half maximal inhibitory concentration (IC50) for each compound was determined using GraphPad Prism software. Additionally, selectivity indices (SI) were determined by the ratio between IC50 of normal cells and that of cancer cells.
(§2) Based on the data obtained from MTT assay, combination indices (CI) were determined using Calcusyn and CompuSyn software (Biosoft, Cambridge, UK). This is based on the established drugs combination method by Chou and Talalay[30],[31]. CI values indicate the type of drugs interaction in which CI < 0.9 indicates synergism, CI = 0.9–1.0 indicates additive and CI > 1.0 indicates antagonism. GraphPad Prism software was used to generate a three-color scale based on CI values obtained, where synergism is represented by green, additive by yellow, and antagonism by red in which the colors of each CI value were interpolated in between these constraints accordingly.
On the technique in general: Tetrazolium dyes change colour on reduction, which living cells bring about.

Another series concerns H1975 lung cancer cells. The series is described as above. The format is cell-based, human. Particulars: for IC50: H1975, max tested 100 μM, combinations: Ru-PIP gradient with fixed Olaparib. As for the experimental part: as §1, §2
In another series the test system is T24 bladder cancer cells. The description is as above. Type of series: cell-based, human. Particulars: T24, max tested 100 μM, combinations: Ru-PIP gradient with fixed Olaparib. As for the experimental part:
as §1, §2

Series [1] deals with MRC5 normal human lung fibroblasts. The series can be described thus: MTT assay (cell viability). The conditions noted are these: max tested 100 μM, combinations: Ru-PIP gradient with fixed Olaparib. Type of series: cell-based. As for the experimental part:
as §1

In series [2] the test system is A549, H1975 and T24 cells. Kind of series: MTT assay, summary statements over the cancer cell lines. The conditions noted are these: Homo sapiens; 72 h; A549, H1975 and T24 cells together; read-out: 72 h IC50 on the tested cancer cells. Type of series: cell-based, human. As for the experimental part: as §1
In series [3] the test system is A549 cells. The series can be described thus: Wound healing assay. The format is cell-based, human. Particulars: Olaparib 5 µM. On the procedure: Lung cancer cells were seeded at density of 5 × 10^5 cells/well in a 6-well plate and were incubated in the incubator until a confluent monolayer of cells formed. After serum-starved for 4 h, a straight scratch was made in each well with a sterile 200 µl pipette tip, solution was removed, and each well was washed with 1X PBS twice. Cells were treated with Ru-PIP (25 µM), Olaparib (5 µM) or both. Cells migration in the wound scratch area was photographed at 0, 24, 48 and 72 h timepoints. Images were photographed at 10 × magnification using a camera attached microscope and were analyzed using ImageJ software. The percentage of wound scratch closure was determined by measuring the reduction in the wound area at each time point by comparing to 0 h (100%).

In series [4] the test system is A549 cells. The series can be described thus: Cell cycle analysis (PI staining, flow cytometry). Particulars: Ru-PIP 25 µM, Olaparib 5 µM or both, 24 h. Type of series: cell-based, human. As for the experimental part: Lung cancer cells were seeded in 6-well plate at density of 1 × 10^5 cells/well and allowed to adhere overnight. Cells were treated with Ru-PIP (25 µM), Olaparib (5 µM) or both. After 24 or 48 h incubations, cells were harvested, washed with 1X PBS twice, and fixed with ice-cold 70% ethanol at least overnight at − 20 °C. The fixed cells were collected by centrifugation at 1,000 rpm for 5 min and the resulting pellets were washed with 1X PBS twice. The samples were resuspended in 500 µl PBS and treated with 5 µl RNase A solution (10 mg/ml) for 15 min at RT. After incubation, the samples were stained with 2 µl of propidium iodide (PI) solution (5 mg/ml) at RT, in the dark. Samples were acquired, and cell cycle distribution was analyzed using NovoCyte flow cytometer and NovoExpress software. For each sample, a minimum of 10,000 cells were counted and analyzed.
For orientation: A flow cytometer gives signals particle by particle.

In series [5] the test system is A549 cells. The series can be described thus: Apoptosis annexin V-FITC assay. The format is cell-based, human. The conditions noted are these: 24 h, Ru-PIP 25 µM or Olaparib 5 µM. On the procedure:
Lung cancer cells were seeded in 6-well plate at 1 × 10^5 cells/well and allowed to adhere overnight. Cells were treated with Ru-PIP (25 µM), Olaparib (5 µM) or both. After 24 or 48 h incubations, cells were harvested, washed with 1X PBS twice and 500 µl of 1X binding buffer was added to the samples. After, the samples were incubated with 5 µl Annexin V-FITC (Invitrogen) for 20 min at RT. Prior to flow cytometric analysis, 5 µl of PI was added. Samples were acquired was analyzed using NovoCyte flow cytometer and NovoExpress software. For each sample, a minimum of 10,000 cells were counted and analyzed.

For the next series, the system named is A549 spheroids. The series can be described thus: Spheroids growth inhibition studies. Particulars: Ru-PIP 25 µM, Olaparib 5 µM or both, 12 days after treatment initiation. Type of series: cell-based, human. As for the experimental part: Spheroids establishment was attempted for A549 lung cancer cells using hanging drop method. 20 µL of cell suspension containing 2000, 4000, 6000, 8000 and 10,000 cells were dropped onto the surface of petri dish lid and incubated at 37 °C, such that each drop will contain single spheroid. After three days of incubation, each spheroid formed was transferred onto agarose-coated (50 µL, 0.6%) 96-well plates containing 80 µL growth media and further incubated for 15 days at 37 °C, such that each well contained a single spheroid. Formation of spheroids was observed and imaged every three days using a light microscope with a 4 × objective lens connected to a digital camera. During growth, 50% of the media was replaced every three days. The growth in volume of each spheroid was determined according to a published method. At least six spheroids were grown per seeding density for each independent experiment.
Spheroids were grown as described initially. Initial cell seeding density was chosen such that each spheroid reached a diameter of approximately 400 μm after three days (4,000 cells/well for A549 cells). After spheroids formation, spheroids were incubated with Ru-PIP (25 µM), Olaparib (5 µM) or both for a period of 12 days. The structural integrity of spheroids upon treatment was observed and imaged for every three days using a light microscope with a 4 × objective lens connected to a digital camera, and the volume of each spheroid was measured according to a published method. Prior to imaging, 50% of treatment-containing medium was replaced (every three days). At least six spheroids were grown per treatment for each independent experiment.

The nature of the next series: in vivo. Particulars: zebrafish, in vivo. As for the experimental part: (§3) The newly fertilized eggs at less than 1 hpf (hours post fertilization) were collected, washed with deionized water and incubated at RT (28 ± 1 °C) in Danio-SprintM embryo media. […] Untreated control consisting of Danio-SprintM embryo media containing 0.1% DMSO. 24 embryos were used in total for each concentration per treatment of two independent experiments (n = 24). The zebrafish embryos development was observed and imaged using a light microscope attached to a digital camera at 24, 48, 72 and 96 hpf (hours post fertilization). Four lethal endpoints were evaluated including coagulated embryos, lack of somite formation, non-detachment of the tail and lack of heartbeat. All these characteristics were recorded every 24 hpf, except heartbeat, which is visible after 48 hpf. […] Hatching which is also considered as a sensitive endpoint toxicity parameter was also observed in which hatching normally occurs at 48 to 72 hpf.

Another series concerns zebrafish embryos. The series can be described thus: Acute toxicity test on zebrafish embryos (OECD Test No. 236). Particulars: zebrafish embryos; > 25 mg/L. On the procedure: as §3

Here are results for 2 molecules from publication PMC9879939, “Synergy of ruthenium metallo-intercalator, [Ru(dppz)2(PIP)]^2+, with PARP inhibitor Olaparib in non-small cell lung cancer cells” (Scientific Reports, 2023).

What is called IC50 is the concentration that inhibits the measured activity by half. In general, LC50 refers to the concentration that kills 50% of the test population.

Molecules are shown by their SMILES.

Turning to `N.N.[Cl][Pt][Cl]` [Cisplatin, cis-diamminedichloroplatinum(II)], the IC50 is 6.6 ± 2 µM with A549 lung cancer cells (24 h); 4.8 ± 0.5 µM with A549 lung cancer cells (48 h); 2.9 ± 1.2 µM with A549 lung cancer cells (72 h); 26.6 ± 9.9 µM in the series with H1975 lung cancer cells (24 h); 20 ± 6.7 µM in the series with H1975 lung cancer cells (48 h); 13.5 ± 5.7 µM in the series with H1975 lung cancer cells (72 h). For the same molecule, the IC50 was 59.6 ± 7 µM with T24 bladder cancer cells (24 h); 20.8 ± 7.2 µM in the series with T24 bladder cancer cells (48 h); 7.3 ± 1.1 µM in the series with T24 bladder cancer cells (72 h); 13.5 ± 2.4 µM in [1] (24 h); 9.5 ± 1.2 µM in series [1] (48 h); 7.4 ± 2 µM in [1] (72 h).

`O=C(c1cc(Cc2n[nH]c(=O)c3ccccc23)ccc1F)N1CCN(C(=O)C2CC2)CC1` [Olaparib]: the IC50 with A549 lung cancer cells (Homo sapiens, 24 h) is greater than 100 µM; in the series with A549 lung cancer cells (Homo sapiens, 48 h), greater than 100 µM; with A549 lung cancer cells (Homo sapiens, 72 h), greater than 100 µM; in the series on H1975 lung cancer cells (Homo sapiens, NCI-H1975, 24 h), greater than 100 µM; with H1975 lung cancer cells (Homo sapiens, NCI-H1975, 48 h), greater than 100 µM; with H1975 lung cancer cells (Homo sapiens, NCI-H1975, 72 h), 71.7 ± 11.8 µM. Besides, the half-inhibitory concentration (IC50) with T24 bladder cancer cells (Homo sapiens, 24 h) is greater than 100 µM; with T24 bladder cancer cells (Homo sapiens, 48 h) it was greater than 100 µM; in the series with T24 bladder cancer cells (Homo sapiens, 72 h), greater than 100 µM; in series [1] (Homo sapiens, 24 h), greater than 100 µM; in series [1] (Homo sapiens, 48 h) it was greater than 100 µM; in series [1] (Homo sapiens, 72 h) it was greater than 100 µM. For the same molecule, the 50% inhibitory concentration (IC50) in series [2] is greater than 71.7 µM. In addition, in the series on H1975 lung cancer cells (MRC5 vs H1975, 72 h), the “Selectivity Index (SI) = IC50 normal cells/IC50 cancer cells” value is on record as greater than 1.3. Besides, the “impact on cell migration” value in the series with A549 cells [3] was “negligible impact on cell migration”. Also, the cell cycle profile entry with A549 cells [4] is on record as “comparable cell cycle profile with the untreated control”. In addition, the “levels of apoptotic cells” value with A549 cells [5] is given as “comparable levels of apoptotic cells with untreated control”. Besides, the “structural integrity of pre-formed spheroids” value with A549 spheroids is given as “remained structurally intact”. Moreover, the LC50 at 96 h in the series “in vivo” is greater than 100 µg/mL. Also, the “morphological changes of embryos” value with zebrafish embryos was “substantial morphological abnormalities of pericardial edema, yolk sac edema and spinal deformity”.
